According to BindingDB's records for doi:10.1016/s0960-894x(03)00195-1 (Abbott Laboratories, 2003):

assay: Inhibition of transfer of […] to biotin K-ras peptide (KKSKTKCVLL) catalyzed by bovine GGTase-I

Compared with `Cn1cncc1[C@H](OCc1nc(Cl)c(C#N)cc1-c1cccc(Cl)c1)c1ccc(C#N)cc1`, `Cn1cncc1C(OCc1ncc(C#N)cc1-c1cccc(Cl)c1)c1ccc(C#N)cc1` (centres undefined) is 1.5-fold higher in IC50: 2800 nM for the first, 4200 nM for the second.

First: Cn1cncc1C(OCc1nc(N2CCN(C(=O)OC(C)(C)C)CC2)c(C#N)cc1-c1cccc(Cl)c1)c1ccc(C#N)cc1 (centres undefined)
Second: CC(=O)N1CCN(c2nc(COC(c3ccc(C#N)cc3)c3cncn3C)c(-c3cccc(Cl)c3)cc2C#N)CC1 (centres undefined)
The IC50 of the first is 3.2-fold lower: 650 nM for the first, 2100 nM for the second.

First: Cn1cncc1C(OCc1ccc(C#N)nc1-c1cccc(OC(F)(F)F)c1)c1ccc(C#N)cc1 (centres undefined)
Second: Cn1cncc1C(OCc1ccc(C#N)nc1-c1ccc(OC(F)(F)F)cc1)c1ccc(C#N)cc1 (centres undefined) [5-[(4-Cyano-phenyl)-(3-methyl-3H-imidazol-4-yl)-methoxymethyl]-6-(4-trifluoromethoxy-phenyl)-pyridine-2-carbonitrile]
The IC50 of the first is 2.4-fold lower: 510 nM for the first, 1200 nM for the second.

Compared with `Cn1cncc1C(OCc1ccc(C#N)nc1-c1cc(F)cc(F)c1)c1ccc(C#N)cc1` (centres undefined), `Cn1cncc1C(OCc1ccc(C#N)nc1-c1cc(Cl)cc(Cl)c1)c1ccc(C#N)cc1` (centres undefined) [5-[(4-Cyano-phenyl)-(3-methyl-3H-imidazol-4-yl)-methoxymethyl]-6-(3,5-dichloro-phenyl)-pyridine-2-carbonitrile] is 3.4-fold lower in IC50: 4800 nM for the first, 1400 nM for the second. The second is the more potent here.

Compared with `Cn1cncc1C(OCc1ccc(C#N)c(-c2ccc3ccccc3c2)n1)c1ccc(C#N)cc1` (centres undefined), `Cn1cncc1C(OCc1ccc(C#N)nc1-c1ccc2ccccc2c1)c1ccc(C#N)cc1` (centres undefined) [5-[(4-Cyano-phenyl)-(3-methyl-3H-imidazol-4-yl)-methoxymethyl]-6-naphthalen-2-yl-pyridine-2-carbonitrile] is 2.1-fold higher in IC50: 2600 nM for the first, 5500 nM for the second. The first is the more potent here.

Going from `Cn1cncc1C(OCc1ccc(C#N)c(-c2cccc(Cl)c2)n1)c1ccc(C#N)cc1` (centres undefined) [2-(3-Chloro-phenyl)-6-[(4-cyano-phenyl)-(3-methyl-3H-imidazol-4-yl)-methoxymethyl]-nicotinonitrile] to `Cn1cncc1C(OCc1ccc(C#N)nc1-c1cccc(Cl)c1)c1ccc(C#N)cc1` (centres undefined) [6-(3-Chloro-phenyl)-5-[(4-cyano-phenyl)-(3-methyl-3H-imidazol-4-yl)-methoxymethyl]-pyridine-2-carbonitrile], the IC50 rises from 1100 nM to 1700 nM (1.5-fold).

Going from `Cn1cncc1C(OCc1ccc(C#N)cc1)c1ccc(C#N)c(-c2cccc3cccnc23)c1` (centres undefined) [4-[(4-Cyano-benzyloxy)-(3-methyl-3H-imidazol-4-yl)-methyl]-2-quinolin-8-yl-benzonitrile] to `Cn1cncc1C(OCc1ccc(C#N)cn1)c1ccc(C#N)c(-c2cccc3ccccc23)c1` (centres undefined) [A-315493], the IC50 falls from 103 nM to 24 nM (4.3-fold).

Going from `COc1cccc(-c2cc(C#N)ccc2COC(c2ccc(C#N)cc2)c2cncn2C)c1` (centres undefined) [4-{[(4-cyanophenyl)(1-methyl-1H-imidazol-5-yl)methoxy]methyl}-3-(3-methoxyphenyl)benzonitrile] to `Cn1cncc1C(OCc1ccc(C#N)cc1-c1cccc(Cl)c1)c1ccc(C#N)nc1` (centres undefined) [5-[(3'-Chloro-5-cyano-biphenyl-2-ylmethoxy)-(3-methyl-3H-imidazol-4-yl)-methyl]-pyridine-2-carbonitrile], the IC50 rises from 3900 nM to 8620 nM (2.2-fold).

First: Cn1cncc1C(OCc1nc(N2CCC(C(N)=O)CC2)c(C#N)cc1-c1cccc(Cl)c1)c1ccc(C#N)cc1 (centres undefined) [5'-(3-Chloro-phenyl)-3'-cyano-6'-[(4-cyano-phenyl)-(3-methyl-3H-imidazol-4-yl)-methoxymethyl]-3,4,5,6-tetrahydro-2H-[1,2']bipyridinyl-4-carboxylic acid amide]
Second: Cn1cncc1C(OCc1nc(N2CCC(O)CC2)c(C#N)cc1-c1cccc(Cl)c1)c1ccc(C#N)cc1 (centres undefined) [5'-(3-Chloro-phenyl)-6'-[(4-cyano-phenyl)-(3-methyl-3H-imidazol-4-yl)-methoxymethyl]-4-hydroxy-3,4,5,6-tetrahydro-2H-[1,2']bipyridinyl-3'-carbonitrile]
The IC50 of the first is 2.5-fold higher: 2100 nM for the first, 830 nM for the second.

`CN1CCN(c2nc(COC(c3ccc(C#N)cc3)c3cncn3C)c(-c3cccc(Cl)c3)cc2C#N)CC1` (centres undefined) [5-(3-Chloro-phenyl)-6-[(4-cyano-phenyl)-(3-methyl-3H-imidazol-4-yl)-methoxymethyl]-2-(4-methyl-piperazin-1-yl)-nicotinonitrile] and `Cn1cncc1C(OCc1nc(N2CCOCC2)c(C#N)cc1-c1cccc(Cl)c1)c1ccc(C#N)cc1` (centres undefined) [5-(3-Chloro-phenyl)-6-[(4-cyano-phenyl)-(3-methyl-3H-imidazol-4-yl)-methoxymethyl]-2-morpholin-4-yl-nicotinonitrile] are within 1.5-fold of each other in IC50: 2400 nM for the first, 1800 nM for the second.

First: Cn1cncc1C(OCc1ccc(C#N)cc1-c1cc(Cl)cc(Cl)c1)c1ccc(C#N)nc1 (centres undefined) [5-[(3',5'-Dichloro-5-cyano-biphenyl-2-ylmethoxy)-(3-methyl-3H-imidazol-4-yl)-methyl]-pyridine-2-carbonitrile]
Second: Cn1cncc1C(OCc1ccc(C#N)cc1-c1ccc(F)c(Cl)c1)c1ccc(C#N)nc1 (centres undefined) [5-[(3'-Chloro-5-cyano-4'-fluoro-biphenyl-2-ylmethoxy)-(3-methyl-3H-imidazol-4-yl)-methyl]-pyridine-2-carbonitrile]
The IC50 of the first is 9-fold lower: 960 nM for the first, 8600 nM for the second. The first is the more potent here.

`Cn1cncc1C(OCc1ccc(C#N)nc1-c1ccc2c(c1)OC(F)(F)O2)c1ccc(C#N)cc1` (centres undefined) [5-[(4-Cyano-phenyl)-(3-methyl-3H-imidazol-4-yl)-methoxymethyl]-6-(2,2-difluoro-benzo[1,3]dioxol-5-yl)-pyridine-2-carbonitrile] and `Cn1cncc1C(OCc1ccc(C#N)cc1-c1cccc(OC(F)(F)F)c1)c1ccc(C#N)nc1` (centres undefined) [5-[(5-Cyano-3'-trifluoromethoxy-biphenyl-2-ylmethoxy)-(3-methyl-3H-imidazol-4-yl)-methyl]-pyridine-2-carbonitrile] are within 1.5-fold of each other in IC50: 1100 nM for the first, 990 nM for the second.
